EP0536208B1, “1,2-DIHYDRO-3H-DIBENZISOQUINOLINE-1,3-DIONE ANTICANCER AGENTS” (RESEARCH CORPORATION TECHNOLOGIES, INC., priority 1990, dated 1992)
≈ marks a conversion by molar mass, not a printed value. Read-outs that look alike come from different tables or passages of the source.

Columns and labels:
[1] = system: P-388/ADR (adriamycin-Resis-tant); assay: Survival study in tumor-bearing mice, P-388/adriamycin resistant model; assay type: in vivo; conditions: 10^6 cells in DBA mice; 15 mg/kg; d1,5,9; intraperitoneally
Text: (§1) Thus, in the lower level resistant cell lines, such as the ten-fold mitomycin C resistant L1210 and the tenfold adriamycin resistant 2780 ovarian cancer, Compound 1 maintained its complete activity as shown in Table II. The anti-tumor activity of compounds of the present invention in in vivo mouse murine models were studied. 3) Survival Studies In Tumor-Bearing Mice: 3.1 P-388 Leukemia Modles: One million P-388 leukemia cells originally obtained from American Type Culture Collection (Rockville, MD) are implanted into the peritoneum of adult DBA-2J male mice (Jackson Laboratories, Bar Harbor, ME). Twenty four hours later, drugs diluted in physiological saline are injected intraperitoneally at a volume of 0.1 mL/10 g body weight. The mice (10/group) are then followed for survival daily and compared to untreated tumor bearing mice. […] The perpendicular widths of the tumors are measured by caliper thrice weekly and converted to an estimated tumor mass according to the formula: ((1 X W)^2)/(2)= grams of tumor. [formula] wherein • W = width of tumor • l = length of tumor Tumor growth delay is calculated as the difference in days for tumors in treated mice to reach an estimated mass 750 mg or 1.5 g compared to that in untreated controls: Days to reach 750 mg (Treated - Control) = Days of Tumor Growth Delay [formula] […]

M5-76 Sarcoma = assay: Tumor growth delay in mice, M5-76 sarcoma model; assay type: in vivo; conditions: -76 Sarcoma (Southern Research Institute)
Experimental: Corbett, T.H., et al., Cancer Chemo Rep., 5 (1975). Mammary 16-C Adenocarcinoma and M5-76 Sarcoma: Chunks of tumor (20-50 mg) are subcutaneously implanted into the flank of B6C3F1 female mice. Drugs (10-45 mg/kg) are dissolved in saline and injected intraperitoneally every four days for three times starting one day after tumor implantation. Tumors are measured bidimensionally as described above and tumor growth delay is calculated at times to reach 1.5 and 3.0 g of tumor mass.

Resistant L1210 = assay: In vitro tumor cell viability assay using MTT dye; assay type: cell-based, Murine; conditions: for IC50: Mus musculus
Experimental: Compounds of the present invention were tested for their in vitro activity in tumor cells sensitive and resistant to standard anti-cancer agents. The tumor cell lines used in this protocol are 8226 human Myeloma^1; 8226/Dox-40^2, L-1210/Murine Leukemia, multidrug resistant L-210/^3, 2780 Human Ovarian Cancer and 2780/AD^4. Each of these resistant cell lines is known as a multidrug resistant or "MDR" cell line. These cell lines produce a 170,00 molecular weight membrane protein termed the P-glycoprotein which acts as an active drug efflux pump. Thus, once a cell produces the P-glycoprotein, it has the capability of pumping out of the cell a large variety of unrelated natural products. […] The protocol for measuring the effectiveness of compounds of the present invention is as follows: 2) In Vitro Tumor Cell Viability Assays Using MTT-Dye: Tumors are processed into a single cell suspension as described above. The cells are plated at a concentration of 3-5 X 10^4/1 mL well into plastic 96-well plates. […] Afterwards the medium containing the drug is removed, the cells are "washed" by centrifugation in fresh medium or phosphate-buffered saline (pH 7.4). A tetrazolium dye is then added (3,4,5-dimethylthiazol-2-yl)-2,5-diphenyl tetrazolium bromide (MTT). This dye forms a colored formazan product upon activation by mitochondrial reductases in viable cells. Typically, the formazan product is solubilized in acid-propanol or DMSO. The intensity of the color is proportional to viable cell numbers and this is quantitated by spectrophotometric absorbance ([…]) on a micro ELISA plate reader. Test results are calibrated in % control absorbance from untreated tumor cells (Mossman T: J Immunol Meth 65:55-63, 1983). Using the above procedure, Compound 1 was tested for its cytotoxic activity with respect to various tumor cell lines.

[2] = system: P-388 lymphocytic leukemia; assay: Survival study in tumor-bearing mice, P-388 leukemia model; assay type: in vivo; conditions: 10^6 cells in DBA mice; 16 mg/kg; d1,5,9; intraperitoneally
Text: as §1

- IC50 (Resistant L1210; 144 h, Resistant L1210, six day MTT assay, continuous drug exposure, read-out: Concentration for 50% inhibition of tumor cells): 2.5 ng/mL (≈ 7.85 nM)
- IC50 (Resistant L1210; L1210, 96 h, L-1210/ MDR, P-glycoprotein (+), 10-fold resistance to Mitomycin C, 4-day drug exposure, MTT dye reduction, read-out: Activity (IC50)): 3 ng/mL (≈ 9.42 nM)
- IC50 (Resistant L1210; L1210 Leukemia Cells Resistant, continuous exposure, MTT dye assay, read-out: IC50 VALUES): 2.5 ng/mL (≈ 7.85 nM)
SMILES: CN(C)CCN1C(=O)c2cccc3cc4ccccc4c(c23)C1=O [Compound 1, 2-[2'-(dimethylamino)ethyl]-1,2-dihydro-3H-dibenz(deh)isoquinoline-1,3-dione]
- Experimental Activity, ILS (Percentage Increased Lifespan) [1]: 33 ILS
- Experimental Activity, Days of Tumor Growth Delay (M5-76 Sarcoma): 7 days
- Cross Resistance (Resistant L1210; resistant L-1210/ versus L-1210/Murine Leukemia): None
- Experimental Activity, ILS (Percentage Increased Lifespan) [2]: 00:ILS*
